Experimental data reported in paper PMC10636171 (Cell Death & Disease, 2023).

Columns and labels:
Assay in all cases: HTRF/ADP-Glo kinase selectivity panel
Format in all cases: biochemical
Conditions in all cases: 500 nM, read-out: 1D228(%inhibition)@500nM
BTK = molecular target: T1, BTK (Homo sapiens, UniProt Q06187)
T1 construct: purchased Invitrogen (c-Met, TRKA, TRKB, TRKC)
Experimental: (§1) The compound was serial diluted from 10 mM stock in DMSO, dilute the test compound to 0.1 mM (200 times the specified test concentration). 2 × ATP & Substrate solution and 2 × kinase & Metal solution were prepared using assay buffer; Transfer 25 nL compound to 384 assay plate by Echo 655; After centrifugation, add 2.5 μL 2 × kinase/metal ion solution 384 assay plate, and incubate at 25 °C for 10 min. 2 × XL665 & Antibody solution were prepared with detection buffer; 5 μL of Kinase Detection Reagent was added to the well, and incubated for 60 min at 25 °C; The fluorescence signals of 620 nm (Cryptate) and 665 nm (XL665) were read by microtiter plate reader; […]

TRKA = molecular target: T2, TRKA (Homo sapiens, UniProt P04629)
T2 construct: purchased Invitrogen (c-Met, TRKA, TRKB, TRKC)
Experimental: as §1

ROS1 = molecular target: T3, ROS1 (Homo sapiens, UniProt P08922)
T3 construct: purchased Invitrogen (c-Met, TRKA, TRKB, TRKC)
T3 sequence (P08922 28-2347): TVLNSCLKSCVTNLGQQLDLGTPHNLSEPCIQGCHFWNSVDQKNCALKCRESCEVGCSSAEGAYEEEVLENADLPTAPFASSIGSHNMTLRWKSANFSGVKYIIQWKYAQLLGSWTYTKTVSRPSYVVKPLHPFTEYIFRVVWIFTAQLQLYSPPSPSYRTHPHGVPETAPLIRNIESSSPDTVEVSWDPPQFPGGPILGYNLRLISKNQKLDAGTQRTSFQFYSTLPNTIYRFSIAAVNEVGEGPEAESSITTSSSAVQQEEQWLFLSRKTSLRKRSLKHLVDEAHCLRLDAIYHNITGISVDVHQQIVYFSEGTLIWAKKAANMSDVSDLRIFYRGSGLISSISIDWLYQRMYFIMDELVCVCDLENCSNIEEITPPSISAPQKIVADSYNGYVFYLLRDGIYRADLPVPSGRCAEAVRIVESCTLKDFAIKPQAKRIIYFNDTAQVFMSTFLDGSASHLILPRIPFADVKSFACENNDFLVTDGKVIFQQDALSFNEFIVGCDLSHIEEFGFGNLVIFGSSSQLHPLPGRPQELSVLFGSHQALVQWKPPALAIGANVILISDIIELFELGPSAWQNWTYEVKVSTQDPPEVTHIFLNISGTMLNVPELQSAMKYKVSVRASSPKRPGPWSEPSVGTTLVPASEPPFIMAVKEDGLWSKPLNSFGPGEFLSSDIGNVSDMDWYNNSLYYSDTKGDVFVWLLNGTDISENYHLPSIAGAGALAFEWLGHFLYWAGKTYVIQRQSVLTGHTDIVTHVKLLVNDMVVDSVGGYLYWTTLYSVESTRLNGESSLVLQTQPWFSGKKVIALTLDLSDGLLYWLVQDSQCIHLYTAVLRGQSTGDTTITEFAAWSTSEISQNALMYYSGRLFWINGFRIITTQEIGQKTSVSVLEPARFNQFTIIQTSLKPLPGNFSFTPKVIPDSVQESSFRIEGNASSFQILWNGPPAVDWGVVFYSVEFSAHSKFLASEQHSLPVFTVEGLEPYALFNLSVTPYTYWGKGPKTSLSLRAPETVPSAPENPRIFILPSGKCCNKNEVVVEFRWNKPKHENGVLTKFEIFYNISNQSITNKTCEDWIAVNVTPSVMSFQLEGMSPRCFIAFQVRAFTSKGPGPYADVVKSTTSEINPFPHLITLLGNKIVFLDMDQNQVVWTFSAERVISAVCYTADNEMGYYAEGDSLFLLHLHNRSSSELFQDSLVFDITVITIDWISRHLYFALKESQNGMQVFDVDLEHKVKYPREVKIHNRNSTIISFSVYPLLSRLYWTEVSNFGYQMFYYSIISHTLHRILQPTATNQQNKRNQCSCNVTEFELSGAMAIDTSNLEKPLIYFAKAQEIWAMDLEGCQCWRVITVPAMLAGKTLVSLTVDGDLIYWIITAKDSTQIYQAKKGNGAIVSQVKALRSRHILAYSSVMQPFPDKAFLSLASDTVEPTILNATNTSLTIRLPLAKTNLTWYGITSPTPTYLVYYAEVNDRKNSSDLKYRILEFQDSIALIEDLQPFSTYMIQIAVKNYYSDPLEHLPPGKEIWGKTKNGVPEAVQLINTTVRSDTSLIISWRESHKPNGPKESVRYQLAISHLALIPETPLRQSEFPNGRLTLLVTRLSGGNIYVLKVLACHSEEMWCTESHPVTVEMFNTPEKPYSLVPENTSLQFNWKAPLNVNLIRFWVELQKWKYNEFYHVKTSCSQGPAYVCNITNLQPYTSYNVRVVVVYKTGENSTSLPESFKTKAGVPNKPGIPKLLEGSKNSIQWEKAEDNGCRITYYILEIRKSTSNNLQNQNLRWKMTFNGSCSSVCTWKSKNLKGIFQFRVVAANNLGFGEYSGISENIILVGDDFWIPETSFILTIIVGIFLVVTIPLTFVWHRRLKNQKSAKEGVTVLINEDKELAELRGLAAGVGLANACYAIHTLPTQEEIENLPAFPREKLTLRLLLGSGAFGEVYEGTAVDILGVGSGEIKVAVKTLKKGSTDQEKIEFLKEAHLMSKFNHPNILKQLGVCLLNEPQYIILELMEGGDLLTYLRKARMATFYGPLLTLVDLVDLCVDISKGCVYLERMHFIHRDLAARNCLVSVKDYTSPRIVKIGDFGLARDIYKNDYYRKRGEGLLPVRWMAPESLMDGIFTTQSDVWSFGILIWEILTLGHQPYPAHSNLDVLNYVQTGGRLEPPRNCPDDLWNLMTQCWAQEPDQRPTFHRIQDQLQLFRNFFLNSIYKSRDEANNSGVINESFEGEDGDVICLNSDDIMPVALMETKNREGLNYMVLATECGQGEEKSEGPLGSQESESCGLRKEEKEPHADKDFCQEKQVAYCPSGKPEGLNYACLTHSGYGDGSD
Experimental: as §1

RET = molecular target: T4, RET (Homo sapiens, UniProt P07949)
T4 construct: purchased Invitrogen (c-Met, TRKA, TRKB, TRKC)
Experimental: as §1

EPHA2 = molecular target: T5, EPHA2 (Homo sapiens, UniProt P29317)
T5 construct: purchased Invitrogen (c-Met, TRKA, TRKB, TRKC)
Experimental: as §1

EPHA5 = molecular target: T6, EPHA5 (Homo sapiens, UniProt P54756)
T6 construct: purchased Invitrogen (c-Met, TRKA, TRKB, TRKC)
Experimental: as §1

BMX = molecular target: T7, BMX (Homo sapiens, UniProt P51813)
T7 construct: purchased Invitrogen (c-Met, TRKA, TRKB, TRKC)
Experimental: as §1

Her4 = molecular target: T8, Her4 (Homo sapiens, UniProt Q15303)
T8 construct: purchased Invitrogen (c-Met, TRKA, TRKB, TRKC)
Experimental: as §1

ALK = molecular target: T9, ALK (Homo sapiens, UniProt Q9UM73)
T9 construct: purchased Invitrogen (c-Met, TRKA, TRKB, TRKC)
Experimental: as §1

ACK = molecular target: T10, ACK (Homo sapiens, UniProt Q07912)
T10 construct: purchased Invitrogen (c-Met, TRKA, TRKB, TRKC)
Experimental: as §1

TYRO3 = molecular target: T11, TYRO3 (Homo sapiens, UniProt Q06418)
T11 construct: purchased Invitrogen (c-Met, TRKA, TRKB, TRKC)
Experimental: as §1

EPHB4 = molecular target: T12, EPHB4 (Homo sapiens, UniProt P54760)
T12 construct: purchased Invitrogen (c-Met, TRKA, TRKB, TRKC)
Experimental: as §1

ABL1 = molecular target: T13, ABL1 (Homo sapiens, UniProt P00519)
T13 construct: purchased Invitrogen (c-Met, TRKA, TRKB, TRKC)
Experimental: as §1

KIT = molecular target: T14, KIT (Homo sapiens, UniProt P10721)
T14 construct: purchased Invitrogen (c-Met, TRKA, TRKB, TRKC)
Experimental: as §1

FES = molecular target: T15, FES (Homo sapiens, UniProt P07332)
T15 construct: purchased Invitrogen (c-Met, TRKA, TRKB, TRKC)
Experimental: as §1

IRR = molecular target: T16, IRR (Homo sapiens, UniProt P14616)
T16 construct: purchased Invitrogen (c-Met, TRKA, TRKB, TRKC)
Experimental: as §1

HER2 = molecular target: T17, HER2 (Homo sapiens, UniProt P04626)
T17 construct: purchased Invitrogen (c-Met, TRKA, TRKB, TRKC)
Experimental: as §1

FGFR1 = molecular target: T18, FGFR1 (Homo sapiens, UniProt P11362)
T18 construct: purchased Invitrogen (c-Met, TRKA, TRKB, TRKC)
Experimental: as §1

CSF1R = molecular target: T19, CSF1R (Homo sapiens, UniProt P07333)
T19 construct: purchased Invitrogen (c-Met, TRKA, TRKB, TRKC)
Experimental: as §1

TRKB = molecular target: T20, TRKB (Homo sapiens, UniProt Q16620)
T20 construct: purchased Invitrogen
Experimental: as §1

FYN [a] = molecular target: T21, FYN [a] (Homo sapiens, UniProt P06241)
T21 construct: purchased Invitrogen (c-Met, TRKA, TRKB, TRKC)
Experimental: as §1

EPHA6 = molecular target: T22, EPHA6 (Homo sapiens, UniProt Q9UF33)
T22 construct: purchased Invitrogen (c-Met, TRKA, TRKB, TRKC)
Experimental: as §1

SRC = molecular target: T23, SRC (Homo sapiens, UniProt P12931)
T23 construct: purchased Invitrogen (c-Met, TRKA, TRKB, TRKC)
T23 sequence (P12931 whole entry): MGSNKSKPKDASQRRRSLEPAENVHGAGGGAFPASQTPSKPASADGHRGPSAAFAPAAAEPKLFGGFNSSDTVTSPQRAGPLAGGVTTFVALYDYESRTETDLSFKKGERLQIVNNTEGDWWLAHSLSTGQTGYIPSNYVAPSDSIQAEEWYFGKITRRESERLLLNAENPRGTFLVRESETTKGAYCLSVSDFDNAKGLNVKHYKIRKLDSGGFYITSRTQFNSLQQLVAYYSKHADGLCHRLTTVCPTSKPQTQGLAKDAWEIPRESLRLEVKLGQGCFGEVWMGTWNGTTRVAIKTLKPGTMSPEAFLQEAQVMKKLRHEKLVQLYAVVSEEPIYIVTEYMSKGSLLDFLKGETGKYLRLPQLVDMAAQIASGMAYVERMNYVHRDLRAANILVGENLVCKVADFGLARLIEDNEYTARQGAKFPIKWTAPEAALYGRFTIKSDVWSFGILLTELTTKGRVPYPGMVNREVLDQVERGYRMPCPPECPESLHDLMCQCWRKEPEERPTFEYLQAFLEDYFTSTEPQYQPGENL
Experimental: as §1

TYK2 = molecular target: T24, TYK2 (Homo sapiens, UniProt P29597)
T24 construct: purchased Invitrogen (c-Met, TRKA, TRKB, TRKC)
Experimental: as §1

TIE2 = molecular target: T25, TIE2 (Homo sapiens, UniProt Q02763)
T25 construct: purchased Invitrogen (c-Met, TRKA, TRKB, TRKC)
T25 sequence (Q02763 23-1124): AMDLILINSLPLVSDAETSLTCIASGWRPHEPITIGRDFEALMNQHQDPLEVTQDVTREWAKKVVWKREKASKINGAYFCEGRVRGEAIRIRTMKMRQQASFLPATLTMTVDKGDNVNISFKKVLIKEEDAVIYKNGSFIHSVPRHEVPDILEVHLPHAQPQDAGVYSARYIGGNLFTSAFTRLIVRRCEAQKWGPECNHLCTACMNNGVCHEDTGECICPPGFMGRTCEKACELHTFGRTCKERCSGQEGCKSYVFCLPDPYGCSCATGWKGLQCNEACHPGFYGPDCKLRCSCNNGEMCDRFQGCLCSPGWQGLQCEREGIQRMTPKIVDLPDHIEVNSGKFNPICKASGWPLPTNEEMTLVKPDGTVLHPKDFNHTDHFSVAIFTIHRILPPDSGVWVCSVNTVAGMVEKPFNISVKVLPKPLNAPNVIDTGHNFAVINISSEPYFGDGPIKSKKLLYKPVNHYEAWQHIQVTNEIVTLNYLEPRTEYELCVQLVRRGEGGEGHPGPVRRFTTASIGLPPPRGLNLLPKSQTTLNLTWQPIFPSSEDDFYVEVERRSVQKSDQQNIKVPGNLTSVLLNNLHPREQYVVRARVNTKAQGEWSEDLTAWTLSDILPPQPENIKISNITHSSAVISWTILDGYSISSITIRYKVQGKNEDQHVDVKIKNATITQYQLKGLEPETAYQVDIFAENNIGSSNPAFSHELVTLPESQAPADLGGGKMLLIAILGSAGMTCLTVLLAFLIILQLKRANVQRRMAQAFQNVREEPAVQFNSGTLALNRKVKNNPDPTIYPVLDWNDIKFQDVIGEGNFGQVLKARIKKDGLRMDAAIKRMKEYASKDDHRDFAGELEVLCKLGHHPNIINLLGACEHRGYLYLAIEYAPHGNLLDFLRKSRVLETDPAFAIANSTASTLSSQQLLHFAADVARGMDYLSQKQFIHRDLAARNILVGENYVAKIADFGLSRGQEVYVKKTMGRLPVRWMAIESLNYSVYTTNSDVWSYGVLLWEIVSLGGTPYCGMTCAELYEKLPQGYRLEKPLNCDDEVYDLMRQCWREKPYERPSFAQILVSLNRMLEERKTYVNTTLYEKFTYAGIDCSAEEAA
Experimental: as §1

HCK = molecular target: T26, HCK (Homo sapiens, UniProt P08631)
T26 construct: purchased Invitrogen (c-Met, TRKA, TRKB, TRKC)
Experimental: as §1

EPHB2 = molecular target: T27, EPHB2 (Homo sapiens, UniProt P29323)
T27 construct: purchased Invitrogen (c-Met, TRKA, TRKB, TRKC)
Experimental: as §1

ITK = molecular target: T28, ITK (Homo sapiens, UniProt Q08881)
T28 construct: purchased Invitrogen (c-Met, TRKA, TRKB, TRKC)
Experimental: as §1

LYNb = molecular target: T29, LYNb (Homo sapiens, UniProt P07948)
T29 construct: purchased Invitrogen (c-Met, TRKA, TRKB, TRKC)
Experimental: as §1

FGFR4 = molecular target: T30, FGFR4 (Homo sapiens, UniProt P22455)
T30 construct: purchased Invitrogen (c-Met, TRKA, TRKB, TRKC)
Experimental: as §1

DDR1 = molecular target: T31, DDR1 (Homo sapiens, UniProt Q08345)
T31 construct: purchased Invitrogen (c-Met, TRKA, TRKB, TRKC)
Experimental: as §1

TEC = molecular target: T32, TEC (Homo sapiens, UniProt P42680)
T32 construct: purchased Invitrogen (c-Met, TRKA, TRKB, TRKC)
Experimental: as §1

KDR = molecular target: T33, KDR (Homo sapiens, UniProt P35968)
T33 construct: purchased Invitrogen (c-Met, TRKA, TRKB, TRKC)
Experimental: as §1

EPHB1 = molecular target: T34, EPHB1 (Homo sapiens, UniProt P54762)
T34 construct: purchased Invitrogen (c-Met, TRKA, TRKB, TRKC)
Experimental: as §1

FER = molecular target: T35, FER (Homo sapiens, UniProt P16591)
T35 construct: purchased Invitrogen (c-Met, TRKA, TRKB, TRKC)
Experimental: as §1

TRKC = molecular target: T36, TRKC (Homo sapiens, UniProt Q16288)
T36 construct: purchased Invitrogen (c-Met, TRKA, TRKB, TRKC)
Experimental: as §1

JAK3 = molecular target: T37, JAK3 (Homo sapiens, UniProt P52333)
T37 construct: purchased Invitrogen (c-Met, TRKA, TRKB, TRKC)
Experimental: as §1

FGFR2 = molecular target: T38, FGFR2 (Homo sapiens, UniProt P21802)
T38 construct: purchased Invitrogen (c-Met, TRKA, TRKB, TRKC)
Experimental: as §1

LCK = molecular target: T39, LCK (Homo sapiens, UniProt P06239)
T39 construct: purchased Invitrogen (c-Met, TRKA, TRKB, TRKC)
T39 sequence (P06239 whole entry): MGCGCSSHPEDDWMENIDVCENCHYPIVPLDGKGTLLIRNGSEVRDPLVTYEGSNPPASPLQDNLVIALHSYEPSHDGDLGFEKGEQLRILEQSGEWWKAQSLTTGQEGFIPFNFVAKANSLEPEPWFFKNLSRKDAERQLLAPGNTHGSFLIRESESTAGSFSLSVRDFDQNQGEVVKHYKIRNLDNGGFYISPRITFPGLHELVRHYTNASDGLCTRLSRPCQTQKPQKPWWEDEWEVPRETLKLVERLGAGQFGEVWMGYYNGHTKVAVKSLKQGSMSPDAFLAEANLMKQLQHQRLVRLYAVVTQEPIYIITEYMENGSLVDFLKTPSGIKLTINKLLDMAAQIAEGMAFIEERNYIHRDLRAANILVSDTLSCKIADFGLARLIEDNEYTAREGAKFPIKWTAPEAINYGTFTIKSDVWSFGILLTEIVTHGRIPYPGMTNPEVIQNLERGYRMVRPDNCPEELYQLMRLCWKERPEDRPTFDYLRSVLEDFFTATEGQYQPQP
Experimental: as §1

EPHA4 = molecular target: T40, EPHA4 (Homo sapiens, UniProt P54764)
T40 construct: purchased Invitrogen (c-Met, TRKA, TRKB, TRKC)
Experimental: as §1

T1 sequence (Q06187 whole entry): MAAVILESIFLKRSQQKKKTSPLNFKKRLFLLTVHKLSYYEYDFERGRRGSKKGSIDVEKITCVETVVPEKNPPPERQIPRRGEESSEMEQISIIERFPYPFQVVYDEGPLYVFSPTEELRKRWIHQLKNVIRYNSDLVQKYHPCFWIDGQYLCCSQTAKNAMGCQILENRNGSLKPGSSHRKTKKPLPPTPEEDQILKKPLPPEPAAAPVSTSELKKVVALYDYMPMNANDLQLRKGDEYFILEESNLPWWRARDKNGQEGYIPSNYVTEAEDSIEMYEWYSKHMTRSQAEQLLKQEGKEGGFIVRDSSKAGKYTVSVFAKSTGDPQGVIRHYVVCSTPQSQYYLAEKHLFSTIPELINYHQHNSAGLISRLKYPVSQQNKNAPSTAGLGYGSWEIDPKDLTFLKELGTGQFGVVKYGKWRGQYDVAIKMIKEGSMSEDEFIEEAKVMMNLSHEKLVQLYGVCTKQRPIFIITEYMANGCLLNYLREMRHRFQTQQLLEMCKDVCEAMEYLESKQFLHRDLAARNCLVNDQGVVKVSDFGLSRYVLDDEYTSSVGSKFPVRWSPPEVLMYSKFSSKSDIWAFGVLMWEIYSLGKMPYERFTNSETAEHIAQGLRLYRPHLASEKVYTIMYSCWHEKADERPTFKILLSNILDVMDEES

SMILES: [2H][C@@](C)(c1cccc(-c2ncc(OCC3CCN(C)CC3)cn2)c1)n1nc(-c2cccc(C#N)c2)ccc1=O [1D228]
- inhibition at 0.5 µM (BTK): -3.81%
- inhibition at 0.5 µM (TRKA): 93.6%
- inhibition at 0.5 µM (ROS1): 7.05%
- inhibition at 0.5 µM (RET): 12.2%
- inhibition at 0.5 µM (EPHA2): -0.798%
- inhibition at 0.5 µM (EPHA5): 3.74%
- inhibition at 0.5 µM (BMX): 5.12%
- inhibition at 0.5 µM (Her4): 2.21%
- inhibition at 0.5 µM (ALK): 89.5%
- inhibition at 0.5 µM (ACK): 1.96%
- inhibition at 0.5 µM (TYRO3): 4.2%
- inhibition at 0.5 µM (EPHB4): 5.08%
- inhibition at 0.5 µM (ABL1): 6.37%
- inhibition at 0.5 µM (KIT): -4.5%
- inhibition at 0.5 µM (FES): 1.05%
- inhibition at 0.5 µM (IRR): 3.88%
- inhibition at 0.5 µM (HER2): 8.78%
- inhibition at 0.5 µM (FGFR1): 1.72%
- inhibition at 0.5 µM (CSF1R): 3.21%
- inhibition at 0.5 µM (TRKB): 97.1%
- inhibition at 0.5 µM (FYN [a]): -7.78%
- inhibition at 0.5 µM (EPHA6): -1.78%
- inhibition at 0.5 µM (SRC): 2.91%
- inhibition at 0.5 µM (TYK2): 4.51%
- inhibition at 0.5 µM (TIE2): -2.64%
- inhibition at 0.5 µM (HCK): -4.06%
- inhibition at 0.5 µM (EPHB2): -3.54%
- inhibition at 0.5 µM (ITK): 1.6%
- inhibition at 0.5 µM (LYNb): 5.26%
- inhibition at 0.5 µM (FGFR4): -0.37%
- inhibition at 0.5 µM (DDR1): -11.8%
- inhibition at 0.5 µM (TEC): 8.29%
- inhibition at 0.5 µM (KDR): 5.62%
- inhibition at 0.5 µM (EPHB1): -6.48%
- inhibition at 0.5 µM (FER): -13.3%
- inhibition at 0.5 µM (TRKC): 99%
- inhibition at 0.5 µM (JAK3): 0.193%
- inhibition at 0.5 µM (FGFR2): 1.04%
- inhibition at 0.5 µM (LCK): 5.21%
- inhibition at 0.5 µM (EPHA4): -14.7%
